Where two headings read alike, the source gives them in different places.
Experiments:
MCF-7 cells [1] = assay: MTT assay of metabolic activity, MCF-7; assay type: cell-based, human
Procedure: (§1) The GW7604-Alk-PtCl3 complexes (with exclusion of GW7604-Prop-PtCl3) were investigated for cytotoxic effects in SKBr3 (ER-negative, COX-2-positive, Figure 6), MCF-7 (ERα-positive, COX-negative, Figure 6), and noncancerous TSA-201 (human embryonal kidney) cells at concentrations of 10–30 μM using an established MTT (3-(4,5-dimethylthiazol-2-yl)-2,5-diphenyltetrazolium bromide) assay.[60],[69]
(§2) After incubation for 72 h, the amounts of surviving, metabolically active cells were quantified based on their ability to transform the water-soluble yellow dye MTT to a purple formazan, which can be analyzed by UV–vis spectroscopy.
(§3) The exponentially growing cells were seeded at a density of 1750 (MCF-7), 2000 (SKBr3), and 1250 (TSA-201) cells/well into clear flat-bottom 96-well plates in triplicate. Following 24 h of incubation at 37 °C in a humidified atmosphere (5% CO2/95% air), the compounds [freshly prepared stock solutions in DMF, diluted with DMEM to the desired concentration (final DMF concentration of 0.1% (v/v))] were added to reach the indicated concentrations. After another 72 h of incubation, the cellular metabolic activity was measured employing an MTT assay. By adding predissolved MTT reagent in PBS at a final concentration of 0.5 mg/mL, the metabolic activity can be determined via an enzymatic conversion to a purple formazan salt. After 3 h, the medium was aspirated, and 200 μL of DMSO was added to dissolve the formed formazan crystals. The absorbance was measured at 570 and 690 nm (turbidity assessment) using an EnSpire plate reader (PerkinElmer, Waltham, MA, USA). Solvent-treated cells without a compound served as the positive control. Metabolic activity was calculated by the following equation [drawing 1]

[2] = target: T1, ERβ ligand-binding domain (Homo sapiens, UniProt Q92731); assay: TR-FRET ligand binding assay, isolated LBD of ERβ
T1 construct: purchased Invitrogen
T1 sequence (Q92731 264-498 limits assumed): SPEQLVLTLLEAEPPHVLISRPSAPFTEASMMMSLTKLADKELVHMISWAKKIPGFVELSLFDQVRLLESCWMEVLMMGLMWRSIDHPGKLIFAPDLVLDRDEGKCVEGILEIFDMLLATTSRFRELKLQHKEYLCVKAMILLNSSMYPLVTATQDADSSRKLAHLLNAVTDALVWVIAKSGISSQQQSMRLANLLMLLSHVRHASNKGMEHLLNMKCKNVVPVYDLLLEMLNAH
Procedure: (§4) A modified LanthaScreen TR-FRET alpha/beta assay was performed, according to the manufacturer’s protocol (Invitrogen, Carlsbad, […]), to determine the binding affinity to the isolated LBD. […] Measurements were carried out on a multimode plate reader, Tecan Spark (Tecan, Männedorf, Switzerland). Calculations and visualization were performed with GraphPad Prism 8.0 (GraphPad Software, San Diego, CA, USA).

[3] = target: T2, ERα ligand-binding domain (Homo sapiens, UniProt P03372); assay: TR-FRET ligand binding assay, isolated LBD of ERα
T2 construct: purchased Invitrogen
T2 sequence (P03372 311-547 limits assumed): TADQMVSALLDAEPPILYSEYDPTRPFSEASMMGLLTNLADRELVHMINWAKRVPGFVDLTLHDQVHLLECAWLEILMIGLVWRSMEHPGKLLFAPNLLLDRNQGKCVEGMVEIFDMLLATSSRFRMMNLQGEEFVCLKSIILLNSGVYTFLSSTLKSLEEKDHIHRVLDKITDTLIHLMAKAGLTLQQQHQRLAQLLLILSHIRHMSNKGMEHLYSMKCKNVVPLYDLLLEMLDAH
Procedure: as §4

nuclei of SKBr3 cells = assay: Nuclear uptake (platinum by HR-CS-AAS), SKBr3; assay type: cell-based, human; settings: SKBr3, 20 μM, 24 h
Procedure: (§5) Fluorescence in the nuclei is not detectable. Therefore, the nuclei were analyzed for their platinum content using HR-CS-AAS.[25]
(§6) After thawing of the cell/nuclei pellets, they were resuspended in ultrapure water (Siemens LaboStar, Günzburg, Germany; 300 μL) and lyzed with a sonotrode (Bandelin Sonoplus, Berlin, Germany; parameters 20 s, 9 cycles, 80% power). Graphite furnace (GF) AAS was used to quantify the lysates concerning their content of platinum (λ = 265.9450 nm). For this purpose, a contrAA 700 High-Resolution-Continous Source AAS (Analytik Jena, Jena, Germany) was employed, while atomization took place by electrothermal heating of graphite tubes with an inserted platform (Analytik Jena, Jena, Germany). […] The spectrometer was monitored with the ASpect CS software, version 2.3.1.0 (Analytik Jena, Jena, Germany). For all runs, the mean integrated absorbance was determined after three injections of each standard or sample. […] Each cell/nuclei lysate was quantified concerning its protein content following the method of Bradford[71] in order to express the uptake as the amount of compound (pmol) in the lysate relative to its protein mass (mg). […] All standards and lysates were measured in duplicate. After incubating for 5 min at rt, the absorbance (λ = 595 nm) was read on a microplate reader (Tecan Safire 2, Männedorf, Switzerland). […]

MCF-7 cells [4] = assay: Cellular uptake (platinum by HR-CS-AAS), MCF-7; assay type: cell-based, human; settings: MCF-7, 20 μM, 8 h
Procedure: (§7) In order to reach the DNA, the complexes must first pass through the cell membrane and penetrate into the nuclei. Therefore, the cellular uptake kinetics of GW7604-Alk-PtCl3 complexes were studied using the example of GW7604-Pent-PtCl3. This complex and Cisplatin, respectively, were incubated at a concentration of 20 μM with MCF-7 or SKBr3 cells. After various time points [i.e., 0 (3 min), 0.5, 1, 2, 4, and 8 h], cell pellets were prepared, and the platinum content was quantified by high-resolution continuum source atomic absorption spectrometry (HR-CS-AAS).[52]
(§8) After thawing of the cell/nuclei pellets, they were resuspended in ultrapure water (Siemens LaboStar, Günzburg, Germany; 300 μL) and lyzed with a sonotrode (Bandelin Sonoplus, Berlin, Germany; parameters 20 s, 9 cycles, 80% power). Graphite furnace (GF) AAS was used to quantify the lysates concerning their content of platinum (λ = 265.9450 nm). For this purpose, a contrAA 700 High-Resolution-Continous Source AAS (Analytik Jena, Jena, Germany) was employed, while atomization took place by electrothermal heating of graphite tubes with an inserted platform (Analytik Jena, Jena, Germany). A time–temperature program reported in the literature[25] was followed with minor adjustments. The liquid samples kept in 0.5 mL polystyrene vials (Gesellschaft für Analysentechnik, Salzwedel, Germany) were injected directly into the pyrolytically coated tubes using an MPE 60 autosampler (Analytik Jena, Jena, Germany). Throughout the measurements, argon (Alphagaz 1, 99.999%, Air Liquide, Düsseldorf, Germany) served as the purge and protective gas. The spectrometer was monitored with the ASpect CS software, version 2.3.1.0 (Analytik Jena, Jena, Germany). For all runs, the mean integrated absorbance was determined after three injections of each standard or sample. Calibration was performed by an appropriate dilution of a solution of Cisplatin (Sigma-Aldrich, Taufkirchen, Germany) obtaining five standards (2–10 μg/L, R^2 ≥ 0.982). Each cell/nuclei lysate was quantified concerning its protein content following the method of Bradford[71] in order to express the uptake as the amount of compound (pmol) in the lysate relative to its protein mass (mg). Therefore, solutions of Albumin fraction V (Carl Roth, Karlsruhe, Germany) diluted with ultrapure water were adduced for the calibration (six standards, 50–300 μg/mL, R^2 ≥ 0.996). A volume of 20 μL of the Albumin standards or the lysates was added to a 96-well plate (Sarstedt, Nürmbrecht, Germany) and supplemented with 200 μL of Bradford’s reagent (Roti-Nanoquant, Carl Roth, Karlsruhe, Germany; diluted 5-fold with ultrapure water). All standards and lysates were measured in duplicate. After incubating for 5 min at rt, the absorbance (λ = 595 nm) was read on a microplate reader (Tecan Safire 2, Männedorf, Switzerland). The cellular/nuclear uptake (pmol complex/mg protein) is given as the mean ± SD of 2 independent experiments.
For cellular uptake studies, 1.0 × 10^6 of MCF-7 and SKBr3 cells in their exponential growing phase were seeded into 25 cm^2 cell culture flasks and incubated for 24 h under a humidified atmosphere (5% CO2/95% air) at 37 °C. Stock solutions of the platinum complexes (GW7604-Pent-PtCl3, Cisplatin) in DMF were freshly prepared and diluted with complete DMEM containing 10% FCS to the desired concentration [final DMF concentration of 0.1% (v/v), final complex concentration of 20 μM]. The medium in the cell culture flasks was replaced with 3 mL of fresh cell culture medium containing the compounds, and the flasks were incubated under a humidified atmosphere at 37 °C for 3 min, 0.5, 1, 2, 4, and 8 h. Cell pellets were prepared by removing the medium, washing two times with phosphate-buffered saline (PBS), and detaching the cells with Accutase (GE Healthcare, BioSciences, Chicago, IL, USA). Subsequently, cells were pelleted by centrifugation (4 °C, 380g, 3 min). […]

nuclei of MCF-7 cells = assay: Nuclear uptake (platinum by HR-CS-AAS), MCF-7; assay type: cell-based, human; settings: MCF-7, 20 μM, 24 h; pmol complex/mg protein
Procedure: as §5, §6

MCF-7 cells [5] = assay: Comet assay; assay type: cell-based, human; settings: MCF-7, 15 μM, 48 h
Procedure: The comet assay (Figure 10), however, documents different consequences of DNA binding. […] The picture (Figure 10C) is very similar to that of the solvent control (Figure 10A).
MCF-7 cells were seeded at a density of 1.0 × 10^6 cells into a 25 cm^2 flask, followed by 24 h of incubation in a humidified atmosphere (5% CO2/95% air) at 37 °C. […] Cells were incubated with the compounds for 48 h. The assay was performed according to the manufacturer’s protocol (Comet assay kit, Abcam, Cambridge, UK). Briefly, after lysis and application to the microscopy slides, electrophoresis was run in an alkaline buffer for 20 min at 2 V/cm. Subsequently, slides were washed with pure deionized water and EtOH/water [7/3 (v/v)], and stained with Vista Green DNA Dye. Visualization was carried out by real-time live confocal microscopy using an inverted microscope (Zeiss Observer Z1) in arrangement with a spinning disc confocal system (UltraVIEW VoX).

SKBr3 cells [6] = assay: Cellular uptake (platinum by HR-CS-AAS), SKBr3; assay type: cell-based, human; settings: 8 h
Procedure: as §7
as §8, with “A volume of 20 μL of the Albumin standards or the lysates was added to a 96-well plate (Sarstedt, Nürmbrecht, Germany) and supplemented with 200 μL of Bradford’s reagent (Roti-Nanoquant, Carl Roth, Karlsruhe, Germany; diluted 5-fold with ultrapure water).” left out, “The cellular/nuclear uptake (pmol complex/mg protein) is given as the mean ± SD of 2 independent experiments.” left out

SKBr3 cells [7] = assay: MTT assay of metabolic activity, SKBr3; assay type: cell-based, human; settings: 72 h; for IC50: MTT
Procedure: as §1, §2, §3

TSA-201 cells = assay: MTT assay of metabolic activity, noncancerous TSA-201; assay type: cell-based, human; settings: 72 h; for IC50: MTT, read-out: IC50 TSA-210
Procedure: as §1, §2, §3

Water solubility = assay type: physicochemical
[8] = Homo sapiens, MCF7, 72 h, MTT, read-out: IC50 MCF-7
[9] = 72 h, MTT, read-out: IC50 MCF-7

In the case of `CCC(=C(c1ccc(O)cc1)c1ccc(C=CC(=O)O)cc1)c1ccccc1` (mixture of isomers) [GW7604, (E)-3-(4-((E/Z)-1-(4-hydroxyphenyl)-2-phenylbut-1-en-1-yl)phenyl)acrylic acid], the IC50 (MCF-7 cells [1]; Homo sapiens, MCF7, read-out: IC50, reduction of growth of MCF-7 cells) is reported as 0.171 µM.

`C=CCCOC(=O)/C=C/c1ccc(C(=C(CC)c2ccccc2)c2ccc(O)cc2)cc1` (mixture of isomers) [GW7604-But, But-3-en-1-yl (E)-3-(4-((E/Z)-1-(4-hydroxyphenyl)-2-phenylbut-1-en-1-yl)phenyl) Acrylate] showed an IC50 (MCF-7 cells [1]; [8]) greater than 30 µM.

`C=CCCCCOC(=O)/C=C/c1ccc(C(=C(CC)c2ccccc2)c2ccc(O)cc2)cc1` (mixture of isomers) [GW7604-Hex, Hex-5-en-1-yl (E)-3-(4-((E/Z)-1-(4-hydroxyphenyl)-2-phenylbut-1-en-1-yl)phenyl) Acrylate] gave an IC50 (MCF-7 cells [1]; [8]) greater than 30 µM.

In the case of `C=CCCCOC(=O)/C=C/c1ccc(C(=C(CC)c2ccccc2)c2ccc(O)cc2)cc1` (mixture of isomers) [GW7604-Pent, Pent-4-en-1-yl (E)-3-(4-((E/Z)-1-(4-hydroxyphenyl)-2-phenylbut-1-en-1-yl)phenyl) Acrylate], the “RBA (ERβ)” value ([2]; RBA(E2) = 100%) is reported as 0.23%, the IC50 ([2]; read-out: IC50 (ERβ), displacement from the LBS) is reported as 0.105 µM and the “RBA (ERα)” value ([3]; RBA(E2) = 100%) is reported as 0.90%. The IC50 ([3]; read-out: IC50 (ERα), displacement from the LBS) was 0.0391 µM and the IC50 (MCF-7 cells [1]; [8]) was greater than 30 µM.

`C=CCOC(=O)/C=C/c1ccc(C(=C(CC)c2ccccc2)c2ccc(O)cc2)cc1` (mixture of isomers) [GW7604-Prop, Prop-2-en-1-yl (E)-3-(4-((E/Z)-1-(4-hydroxyphenyl)-2-phenylbut-1-en-1-yl)phenyl) Acrylate] gave an IC50 (MCF-7 cells [1]; [8]) of 20 to 30 µM.

With `N.N.[Cl][Pt][Cl]` [Cisplatin, cis-diamminedichloridoplatinum(II), reference compound] the “platinum content in the nuclei” value (nuclei of SKBr3 cells) was 652 pmol/mg, the intracellular platinum amount (MCF-7 cells [4]) was 319 pmol/mg and the “platinum content in the nuclei” value (nuclei of MCF-7 cells) was 172 pmol/mg. For the same molecule, the “comet tails (DNA cross-links)” value (MCF-7 cells [5]) was “visible as comet tails”, the “accumulation in SKBr3 relative to MCF-7 cells” value (SKBr3 cells [6]; 20 μM) was 15 fold and the intracellular platinum amount (SKBr3 cells [6]; SKBr3, 20 μM) was 995 pmol/mg. The IC50 (MCF-7 cells [1]; [9]) was 15 µM and the “reduction of metabolic activity” value (SKBr3 cells [7]; SKBr3, 20 μM) was 88%.

With “Potassium trichlorido[η^2-(but-3-en-1-yl (E)-3-(4-((E/Z)-1-(4-hydroxyphenyl)-2-phenylbut-1-en-1-yl)phenyl)acrylate)]platinate(II) [GW7604-But-PtCl3]” the IC50 (TSA-201 cells) was greater than 30 µM, the “decrease of cell viability” value (TSA-201 cells; TSA-201, 30 μM) was “about 20%” and the IC50 (MCF-7 cells [1]; [9]) was 20.4 µM. The IC50 (SKBr3 cells [7]) was greater than 30 µM.

With “Potassium trichlorido[η^2-(hex-5-en-1-yl (E)-3-(4-((E/Z)-1-(4-hydroxyphenyl)-2-phenylbut-1-en-1-yl)phenyl)acrylate)]platinate(II) [GW7604-Hex-PtCl3]” the IC50 (TSA-201 cells) was greater than 30 µM, the IC50 (MCF-7 cells [1]; [9]) was 20.5 µM and the IC50 (SKBr3 cells [7]) was greater than 30 µM.

In the case of “Potassium trichlorido[η^2-(prop-2-en-1-yl (E)-3-(4-((E/Z)-1-(4-hydroxyphenyl)-2-phenylbut-1-en-1-yl)phenyl)acrylate)]platinate(II) [GW7604-Prop-PtCl3]”, the water solubility (Water solubility) is reported as “does not have sufficient water solubility”.

Source: paper PMC10983001, “Development of Cytotoxic GW7604-Zeise’s Salt Conjugates as Multitarget Compounds with Selectivity for Estrogen Receptor- Positive Tumor Cells” (Journal of Medicinal Chemistry, 2024)
